# According to ChEMBL document CHEMBL5154921, “Discovery and Characterization of the First Nonpeptide Antagonists for the Relaxin-3/RXFP3 System” (J Med Chem, 2022):
# Calls of active or inactive are those of the source. The rule behind the calls is not given here.
# Legend:
# Relaxin-3 receptor 1 = molecular target: T1, Relaxin-3 receptor 1 (Homo sapiens, UniProt Q9NSD7); experiment: Antagonist activity at human RXFP3 expressed in CHO-K1 cells assessed as [35S]GTPgammaS binding incubated for 1 hr by [35S]GTP-gammaS binding assay; format: functional, cell-based
# T1 sequence (Q9NSD7 whole entry): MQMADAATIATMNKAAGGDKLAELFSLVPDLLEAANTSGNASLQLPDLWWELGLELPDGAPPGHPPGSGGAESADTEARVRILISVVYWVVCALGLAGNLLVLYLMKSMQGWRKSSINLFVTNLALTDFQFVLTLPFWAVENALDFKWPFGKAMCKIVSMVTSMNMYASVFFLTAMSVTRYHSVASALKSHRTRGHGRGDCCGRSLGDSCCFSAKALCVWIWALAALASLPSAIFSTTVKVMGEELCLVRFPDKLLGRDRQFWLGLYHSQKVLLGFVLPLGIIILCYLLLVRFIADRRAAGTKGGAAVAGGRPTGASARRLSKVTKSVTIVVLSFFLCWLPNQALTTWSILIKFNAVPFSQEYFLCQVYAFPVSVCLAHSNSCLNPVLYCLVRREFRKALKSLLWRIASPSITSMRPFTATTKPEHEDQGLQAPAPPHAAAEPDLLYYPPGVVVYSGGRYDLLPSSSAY
# [1] = molecular target: Relaxin receptor 1 (Homo sapiens) (UniProt Q9HBX9); experiment: Antagonist activity at human RXFP1 receptor expressed in CHO-K1 cells assessed as cAMP production at 10 to 30 uM in presence of relaxin-3 incubated for 30 mins by TR-FRET assay; format: functional, cell-based; conditions: filed as antagonist, dose 10-30 µM
# Sequence of Relaxin receptor 1 (Homo sapiens) (Q9HBX9 whole entry): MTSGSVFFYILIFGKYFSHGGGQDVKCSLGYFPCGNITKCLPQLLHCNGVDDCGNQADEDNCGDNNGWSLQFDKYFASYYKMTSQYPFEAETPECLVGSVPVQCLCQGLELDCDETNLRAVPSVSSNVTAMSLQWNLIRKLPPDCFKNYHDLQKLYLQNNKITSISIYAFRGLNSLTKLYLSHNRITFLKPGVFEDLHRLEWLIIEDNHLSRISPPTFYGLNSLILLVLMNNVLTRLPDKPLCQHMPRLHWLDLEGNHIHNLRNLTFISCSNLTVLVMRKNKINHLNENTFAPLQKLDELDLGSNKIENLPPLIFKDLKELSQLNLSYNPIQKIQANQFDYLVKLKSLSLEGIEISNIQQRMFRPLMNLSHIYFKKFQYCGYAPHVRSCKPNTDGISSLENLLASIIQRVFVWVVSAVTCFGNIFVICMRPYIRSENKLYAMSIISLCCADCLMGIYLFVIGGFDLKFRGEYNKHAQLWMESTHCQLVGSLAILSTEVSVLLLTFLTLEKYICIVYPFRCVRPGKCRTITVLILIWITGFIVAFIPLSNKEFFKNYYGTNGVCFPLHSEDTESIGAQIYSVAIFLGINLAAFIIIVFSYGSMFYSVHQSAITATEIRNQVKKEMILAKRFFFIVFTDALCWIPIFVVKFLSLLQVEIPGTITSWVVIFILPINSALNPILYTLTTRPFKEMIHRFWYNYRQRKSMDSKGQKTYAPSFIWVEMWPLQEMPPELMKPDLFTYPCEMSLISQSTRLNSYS
smiles,measurement,setting,value
O=C(Nc1ccc(-c2nc(-c3ccc(Cl)cc3)no2)cc1)C1CC(=O)N(Cc2cccnc2)C1 (configuration not stated),IC50,Relaxin-3 receptor 1,3.04 µM
same,Activity,[1],Active
